Experimental data reported in patent publication US12024506B2, “Compounds” (Oxford University Innovation Limited, priority 2018, dated 2024).

Tests used:
[1] = molecular target: T1, GST-human KRas166 (G12V) GPPNHP (Homo sapiens, UniProt P01116, G12V); experiment: KRas small-molecule screening by SPR (Biacore T200); assay type: binding; conditions: compound 100 uM, 5% DMSO buffer; immobilised GST-KRas166 (G12V) GPPNHP
T1 construct: made in house; host or cells: E. coli C41(DE3)
Method in brief: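 Biacore T200 screen: compounds at 100 uM final in 5% DMSO buffer (100 mM NaCl, 5 mM MgCl2) over GPPNHP-bound GST-KRas166 G12V captured by anti-GST antibody (10,000–15,000 RU) versus GST-only channel. Expected 1:1 Rmax 63 RU; DMSO solvent correction applied.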

[2] = test system: DLD1 cells (ATCC CCL-221); experiment: Cell viability assay 1 (CellTiter-Glo), DLD1 cells; assay type: cell-based; conditions: Homo sapiens, DLD-1 cells, 48 h, second value of the cell, read-out: Cell Viability DLD-1 (concentration that decreases cell viability by 50%)
Description: (§1) Cells (A549 ATCC CCL-185) are cultured in Dulbecco's Modified Eagle's Medium plus 10% foetal calf serum and 2 mM L-glutamine at 37° C., 5% CO2. Cells are plated onto white clear bottom 96-well plates (5000 cells/well in 200 μl media) and left to adhere overnight at 37° C., 5% CO2. Next day, test compound (1 μl at 200× concentration in 100% DMSO) is added to give final test compound concentration 1× in 0.5% DMSO. After 48 h of incubation at 37° C., 5% CO2, 20 μl CellTiter-Glo reagent (Promega G7572) is added into each well. Plates are incubated at room temperature with shaking for 30 min and then luminescence is read using a PheraStar plate reader. The concentration of compounds that decrease cell viability by 50% is calculated from dose response curves generated using Dotmatics data analysis software.
In the DLD1 cell assay, cells (ATCC CCL-221) are cultured in RPMI-1640 medium plus 10% foetal calf serum and 2 mM L-glutamine at 37° C., 5% CO2.

[3] = test system: H358 cells (ATCC CRL-5807); experiment: Cell viability assay 1 (CellTiter-Glo), H358 cells; assay type: cell-based; conditions: Homo sapiens, NCI-H358, 48 h, first value of the cell, read-out: Cell Viability H358 (concentration that decreases cell viability by 50%)
Description: as §1
In the H358 cell assay, cells (ATCC CRL-5807) are cultured in RPMI-1640 medium plus 10% foetal calf serum and 2 mM L-glutamine at 37° C., 5% CO2.

SPR Response Units [1]	IC50 [2]	IC50 [3]	Compound
114 Response Units	11 µM	27 µM	CN1CCN(Cc2ccc(C(=O)NCC3COc4cccc(-c5cc(OCc6ccccc6)ccn5)c4O3)o2)CC1 (stereo not drawn) [Example 106, 5-(4-Methyl-piperazin-1-ylmethyl)-furan-2-carboxylic acid [8-(4-benzyloxy-pyridin-2-yl)-2,3-dihydro-benzo[1,4]dioxin-2-ylmethyl]-amide]
114 Response Units	9 µM	> 100 µM	CN1CCN(Cc2ccc(C(=O)NCC3COc4cccc(-c5ccc(OCc6ccccc6)cn5)c4O3)o2)CC1 (stereo not drawn) [Example 109, 5-(4-Methyl-piperazin-1-ylmethyl)-furan-2-carboxylic acid [8-(5-benzyloxy-pyridin-2-yl)-2,3-dihydro-benzo[1,4]dioxin-2-ylmethyl]-amide]
90 Response Units	16.3 µM	18.8 µM	COc1nc(-c2cccc3c2O[C@H](CNC(=O)C2CCOCC2)CO3)ccc1Nc1cccc(CN(C)C)c1 [Example 112, Tetrahydro-pyran-4-carboxylic acid {(R)-8-[5-(3-dimethylamino-methyl-phenylamino)-6-methoxy-pyridin-2-yl]-2,3-dihydro-benzo[1,4]dioxin-2-ylmethyl}-amide]
291 Response Units	11 µM	12.8 µM	COc1nc(-c2cccc3c2OC(CNC(=O)C2CCOCC2)CO3)ccc1Nc1ccc(CNCc2ccccn2)cc1 (stereo not drawn) [Example 118, Tetrahydro-pyran-4-carboxylic acid {8-[6-methoxy-5-(4-{[(pyridin-2-ylmethyl)-amino]-methyl}-phenylamino)-pyridin-2-yl]-2,3-dihydro-benzo[1,4]dioxin-2-ylmethyl}-amide]
349 Response Units	11.2 µM	10 µM	COc1nc(-c2cccc3c2OC(CNC(=O)C2CCOCC2)CO3)ccc1Nc1ccc(CNCc2ccncc2)cc1 (stereo not drawn) [Example 119, Tetrahydro-pyran-4-carboxylic acid {8-[6-methoxy-5-(4-{[(pyridin-4-ylmethyl)-amino]-methyl}-phenylamino)-pyridin-2-yl]-2,3-dihydro-benzo[1,4]dioxin-2-ylmethyl}-amide]
230 Response Units	10.9 µM	12.4 µM	COc1nc(-c2cccc3c2OC(CNC(=O)C2CCOCC2)CO3)ccc1Nc1ccc(CNCc2ccn[nH]2)cc1 (stereo not drawn) [Example 120, Tetrahydro-pyran-4-carboxylic acid {8-[6-methoxy-5-(4-{[(2H-pyrazol-3-ylmethyl)-amino]-methyl}-phenylamino)-pyridin-2-yl]-2,3-dihydro-benzo[1,4]dioxin-2-ylmethyl}-amide]
210 Response Units	5.3 µM	5.4 µM	COc1nc(-c2cccc3c2OCCO3)ccc1Nc1cccc(CNCc2cn[nH]c2)c1 [Example 126, [6-(2,3-Dihydro-benzo[1,4]dioxin-5-yl)-2-methoxy-pyridin-3-yl]-(3-{[(1H-pyrazol-4-ylmethyl)-amino]-methyl}-phenyl)-amine]
205 Response Units	18.9 µM	16.9 µM	COc1nc(-c2cccc3c2OC(CNC(=O)C2CCOCC2)CO3)ccc1Nc1ccc(CNCC2COCCN2)cc1 (stereo not drawn) [Example 127, Tetrahydro-pyran-4-carboxylic acid{8-[6-methoxy-5-(4-{[(morpholin-3-ylmethyl)-amino]-methyl}-phenylamino)-pyridin-2-yl]-2,3-dihydro-benzo[1,4]dioxin-2-ylmethyl}-amide]
99 Response Units	9.5 µM	6.7 µM	COc1nc(-c2cccc3c2OCCO3)ccc1Nc1ccc(CNC[C@@H]2COCCN2)cc1 [Example 128, [6-(2,3-Dihydro-benzo[1,4]dioxin-5-yl)-2-methoxy-pyridin-3-yl]-(4-{[((R)-1-morpholin-3-ylmethyl)-amino]-methyl}-phenyl)-amine]
92 Response Units	10.2 µM	6.5 µM	COc1nc(-c2cccc3c2OCCO3)ccc1Nc1ccc(CNC[C@H]2COCCN2)cc1 [Example 129, [6-(2,3-Dihydro-benzo[1,4]dioxin-5-yl)-2-methoxy-pyridin-3-yl]-(4-{[((S)-1-morpholin-3-ylmethyl)-amino]-methyl}-phenyl)-amine]
61 Response Units	11.9 µM	13.6 µM	COc1cc(NC(=O)C2CNCCO2)cc(-c2cccc3c2O[C@H](CNC(=O)c2ccc(CN4CCN(C)CC4)o2)CO3)n1 (stereo partly drawn) [Example 130, Morpholine-2-carboxylic acid{2-methoxy-6-[(R)-3-({[5-(4-methyl-piperazin-1-ylmethyl)-furan-2-carbonyl]-amino}-methyl)-2,3-dihydro-benzo[1,4]dioxin-5-yl]-pyridin-4-yl}-amide]
204 Response Units	11 µM	12.7 µM	COc1cc(-c2cccc3c2OCCO3)ccc1Nc1ccc(CNCC2COCCN2)cc1 (stereo not drawn) [Example 132, [4-(2,3-Dihydro-benzo[1,4]dioxin-5-yl)-2-methoxy-phenyl]-(4-{[(morpholin-3-ylmethyl)-amino]-methyl}-phenyl)-amine]
238 Response Units	18 µM	> 100 µM	CN1CCN(Cc2ccc(C(=O)NCC3COc4cccc(-c5cn(Cc6ccccc6)cn5)c4O3)o2)CC1 (stereo not drawn) [Example 138, 5-(4-Methyl-piperazin-1-ylmethyl)-furan-2-carboxylic acid[8-(1-benzyl-1H-imidazol-4-yl)-2,3-dihydro-benzo[1,4]dioxin-2-ylmethy]-amide]
67 Response Units	6.1 µM	17 µM	COc1nc(-c2cccc3c2OCCO3)ccc1Nc1cccc(CNc2cccnc2)c1 [Example 143]
150 Response Units	1.36 µM	14.7 µM	c1cc2c(c(-c3ccc(Nc4ccc(CNCC5COCCN5)cc4)cc3)c1)OCCO2 (stereo not drawn) [Example 151, 4-(2,3-dihydrobenzo[b][1,4]dioxin-5-yl)-N-(4-(((morpholin-3-ylmethyl)amino)methyl)phenyl)aniline]
90 Response Units	0.14 µM	0.6 µM	CN(C)Cc1cccc(Nc2ccc(-c3cccc4c3OCCO4)[nH]c2=O)c1 [Example 153, 6-(2,3-Dihydro-benzo[1,4]dioxin-5-yl)-3-(3-dimethylaminomethyl-phenylamino)-1H-pyridin-2-one]
71 Response Units	0.56 µM	12.7 µM	c1cc2c(c(-c3cnc(Nc4ccc(CNCC5COCCN5)cc4)cn3)c1)OCCO2 (stereo not drawn) [Example 155, [5-(2,3-Dihydro-benzo[1,4]dioxin-5-yl)-pyrazin-2-yl]-(4-{[(morpholin-3-ylmethyl)-amino]-methyl}-phenyl)-amine]
7 Response Units	> 150 µM	> 150 µM	CN(C)Cc1cccc(CN2CCN(c3cccc4c3OCCO4)CC2)c1 [Example 157, {3-[4-(2,3-Dihydro-benzo[1,4]dioxin-5-yl)-piperazin-1-ylmethyl]-benzyl}-dimethyl-amine]
269 Response Units	3.5 µM	20.6 µM	COc1nc(-c2cccc3c2OCCO3)ccc1Nc1ccc(C(=O)NCC2CCN(C)CC2)cc1 [Example 158, 4-[6-(2,3-Dihydro-benzo[1,4]dioxin-5-yl)-2-methoxy-pyridin-3-ylamino]-N-(1-methyl-piperidin-4-ylmethyl)-benzamide]
122 Response Units	14.1 µM	24.7 µM	COc1nc(-c2cccc3c2OCCO3)ccc1Nc1ccc(C(=O)NCC2CCC(=O)NC2)cc1 (stereo not drawn) [Example 159]
89 Response Units	11 µM	20.7 µM	COc1nc(-c2cccc3c2OCCO3)ccc1Nc1ccc(C(=O)NCc2cn[nH]c2)cc1 [Example 160]
36 Response Units	3.9 µM	27.9 µM	COc1nc(-c2cccc3c2OCCO3)ccc1Nc1cccc(C(=O)NCc2cccc(C)n2)c1 [Example 162, 3-[6-(2,3-Dihydro-benzo[1,4]dioxin-5-yl)-2-methoxy-pyridin-3-ylamino]-N-(6-methyl-pyridin-2-ylmethyl)-benzamide]
192 Response Units	0.74 µM	8.9 µM	COc1nc(-c2cccc3c2OCCO3)ccc1Nc1cccc(C(=O)NCC2CCN(C)CC2)c1 [Example 163, 3-[6-(2,3-Dihydro-benzo[1,4]dioxin-5-yl)-2-methoxy-pyridin-3-ylamino]-N-(1-methyl-piperidin-4-ylmethyl)-benzamide]
